Here are results for one compound from article PMC2394794 (Journal of Synchrotron Radiation, 2008).

Like-named read-outs stand apart in the source and are kept apart here.

Assay [1] addresses T1, HCV NS3/4A protease (Hepatitis C virus genotype 1a, UniProt P27958). The following applies: experimental over predicted relative Ki*.
The target of assay [2] is T1, HCV NS3/4A protease. The assay can be described thus: Inhibition of HCV NS3/4A protease by ketoamide inhibitors. The format is biochemical. To be noted: P2 = DMCP versus P2 = Leu.

T1 sequence (P27958 1658-1711): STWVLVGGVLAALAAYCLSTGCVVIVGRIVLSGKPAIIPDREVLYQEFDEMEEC
T1 sequence (P27958 1027-1208): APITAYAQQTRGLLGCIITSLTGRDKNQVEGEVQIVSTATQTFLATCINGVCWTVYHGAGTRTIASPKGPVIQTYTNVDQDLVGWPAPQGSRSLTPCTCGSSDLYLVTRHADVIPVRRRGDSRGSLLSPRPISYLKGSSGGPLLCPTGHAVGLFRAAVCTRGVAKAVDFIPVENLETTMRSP

Consider `CC(C)(C)NC(=O)N[C@H](C(=O)N1C[C@H]2[C@@H]([C@H]1C(=O)NC(CC1CCC1)C(=O)C(N)=O)C2(C)C)C(C)(C)C` (stereo partly drawn) [Compd 9, ^tBu–urea–t-Bug–DMCP–c-Bua–CONH2], for which the “Ki* ratio exp./SA” value is on record as 4.1 at HCV NS3/4A protease [1] (P2 series) and 9.0 on HCV NS3/4A protease [1] (P3 series). Moreover, the “increase in potency relative to Leu” value at HCV NS3/4A protease [2] came out at 70 fold.
